Broadly, the IC50 is the concentration needed to halve the response being measured. By EC50 is commonly meant the concentration that produces a half-maximal response. Low values mean greater potency, high ones weaker potency.

Consider six compounds from patent US11401278B2, “Macrocyclic indole derivatives” (The Broad Institute, Inc., priority 2017, dated 2022).

For data set [1], the target named is MCL-1 (Homo sapiens (Human), UniProt Q07820, K194A/K197A/R201A). The data set can be described thus: Protein-protein interaction assay MCL-1/Noxa BH3 peptide (MCL-1 assay, TR-FRET). The class given is binding. The settings on record: MBP-MCL-1 / Noxa BH3 peptide, median. How it is done:
Protein-Protein Interaction Assay: MCL-1/Noxa BH3 Peptide (MCL-1 Assay)
The dose-dependent inhibition by the compounds described in this invention of the interaction between MCL-1 and the BH3 domain of Noxa (both human) was determined using a steady state binding competition assay with time-resolved fluorescence energy transfer (TR-FRET) readout. For that purpose MCL-1 (amino acids 173-329, N-terminal fused to Maltose Binding Protein (MBP) SEQ ID 1) and a synthetic Noxa BH3-derived peptide of sequence Biotin-PEG2-PEG2-PAELEVE-Nva-ATQLRRFGDKLNFRQKLL-amide (SEQ ID 2) served as protein receptor and tracer ligand respectively. The MBP-MCL-1 was purchased from Beryllium (Bedford, Mass., USA). The expression and purification of this protein construct has been described elsewhere (DOI:10.1371/journal.pone.0125010). The Noxa BH3-derived peptide can be obtained from e.g. Biosyntan (Berlin, Germany).
In the assay 11 different concentrations of each compound (0.1 nM, 0.33 nM, 1.1 nM, 3.8 nM, 13 nM, 44 nM, 0.15 μM, 0.51 μM, 1.7 μM, 5.9 μM and 20 μM) were typically measured as duplicates in the same microtiter plate. For that, 100-fold concentrated DMSO solutions were prepared by serial dilutions (1:3.4) of a 2 mM stock solution in a clear, 384-well microtiter plate (Greiner Bio-One, Frickenhausen, Germany). From there, 50 nl were transferred in a dark test plate (Greiner Bio-One, Frickenhausen, Germany). The assay was initiated by addition of 2 μl of a 2.5-fold concentrated MBP-MCL-1 solution (usually for a 1 nM end concentration in 5 μl reaction volume) in aqueous assay buffer [50 mM Tris/HCl pH 7, 100 mM sodium chloride (NaCl), 50 mM potassium fluoride (KF), 0.005% Tween-20, 2 mM DTT, 0.1% bovine gamma globulin (BGG)] to the compounds in the assay plate. This was followed by a 10-minute incubation step at 22° C. for pre-equilibration of the putative complex between MBP-MCL-1 and the compounds. After that, 3 μl of a 1.67-fold concentrated solution (in assay buffer) consisting of Noxa BH3-derived peptide (1 nM end concentration) and TR-FRET detection reagents [1.67 nM anti-MBP-Eu cryptate and 1.67 nM streptavidin-XL665 (both from Cisbio Bioassays, Codolet, France)], were added.
The mixture was incubated in the dark for one hour at 22° C. and then overnight at 4° C. The formation of MCL-1/Noxa complexes was determined by measuring the resonance energy transfer of the anti-MBP-Eu-cryptate antibody to the streptavidin-XL665 present in the reaction. For that purpose, the fluorescence emission at 620 nm and 665 nm after excitation at 330-350 nm was measured in a TR-FRET measuring instrument, for instance a Rubystar or a Pherastar (both from BMG Lab Technologies, Offenburg, Germany) or a Viewlux (Perkin-Elmer). The ratio of the emission at 665 nm and at 622 nm was used as indicator of the amount of MCL-1/NOXA complexes present.
The resulting data (ratio) were normalized, taking 0% inhibition as the mean value of control measurements (usually 32 data points) where all reagents were included. In this case 50 nl DMSO were used instead of compounds. A 100% inhibition corresponded to the mean value of control measurements (usually 32 data points) where all reagents except MCL-1 were included. IC50 values were determined by regression analysis based on a 4 parameter equation (minimum, maximum, IC50, Hill; Y=Max+(Min−Max)/(1+(X/IC50)^HiII) using the Screener Software (Genedata).

The subject of data set [2] is SUDHL5. The data set can be described thus: Induction of caspase-3/7 activity (Assay 4), SUDHL5. The class given is cell-based. The settings on record: caspase-3/7 induction, median. How it is done:
(§1) Cellular Assays Assay 4 Induction of Caspase-3/7 Activity Upon Treatment of Cells with Selected Compounds
(§2) The BH3-domain of MCL-1 sequesters pro-apoptotic proteins, thereby inhibiting apoptosis. In contrast, MCL-1 inhibitors are expected to antagonize this effect leading to an increase in apoptosis, which can be determined by measuring the activity of caspase-3/7.
(§3) The activity of caspase-3/7 was determined in DLBCL (Diffuse large B-cell lymphoma) cell lines (SUDHL5 and SUDHL10) upon treatment with different compounds, using the Caspase-Glo® 3/7 reagent from Promega (G8092).
(§4) Rim wells were excluded. The cells were incubated for 3 hours in a humidified incubator at 37° C.
(§5) For the evaluation of the results, the background measured with “medium-only” was subtracted from all other values. […] The Bella DRC Master Sheet was used to calculate EC50s, with fixed C0=1 and CI=plateau/max induction for the reference compound.

Data set [3] relates to SUDHL10. Kind of data set: Induction of caspase-3/7 activity (Assay 4), SUDHL10. The class given is cell-based. Particulars: caspase-3/7 induction, median. How it is done:
as §1, §2, §3, §4, §5

Data set [4] deals with SUDHL5. The data set can be described thus: Antiproliferation assay (Assay 7), SUDHL5. The class given is cell-based. The settings on record: CellTiter-Glo, median, read-out: Antiproli SUDHL5 [M] (median) IC50. As for the experimental part:
(§6) Assessment of the Anti-Proliferative Effect of Compounds in Different Cell Lines
(§7) The impact of compounds on the proliferation of different cell lines was assessed using the CellTiter-Glo® Luminescent Cell Viability reagent from Promega (G7573).
(§8) In parallel, cells were plated in a reference (day 0) plate for time zero determination.
(§9) Rim wells were excluded. The cells were incubated for 72 hours in a humidified incubator at 37° C. The day 0 plate was measured by adding 30 μL/well of CTG solution (CellTiter-Glo® Luminescent Cell Viability reagent, Promega G7573) to time zero wells in the reference plate followed by a 10 minutes incubation and luminescence reading at 0.1 ms. using the PHERAstar FS microplate reader (BMG Labtech).
(§10) After 72 hours incubation, the treated plates were measured in the same way as the day 0 plate mentioned above.

Data set [5] has as its system MV-4-11. Kind of data set: Antiproliferation assay (Assay 7), MV-4-11. The class given is cell-based. Particulars: Homo sapiens, MV4-11, 72 h, CellTiter-Glo, several values per example, read-out: Antiproli MV-4-11 [M] IC50. How it is done:
as §6, §7, §8, §9, §10

Data set [6] deals with AMO-1. Kind of data set: Antiproliferation assay (Assay 7), AMO-1. The class given is cell-based. Particulars: CellTiter-Glo, several values per example, read-out: Antiproli AMO-1 [M] IC50. How it is done:
as §6, §7, §8, §9, §10
In general terms: ATP-based viability assays read luminescence as a measure of living cells.

In data set [7] the test system is SUDHL5. Kind of data set: Induction of cytotoxicity (Assay 6), SUDHL5. The settings on record: read-out: Cytotox SUDHL5 [M] (median) IC50, CellTiter-Glo, 5 hours, SUDHL5.
Data set [8] relates to SUDHL10. The data set can be described thus: Induction of cytotoxicity (Assay 6), SUDHL10. The settings on record: read-out: Cytotox SUDHL10 [M] (median) IC50, CellTiter-Glo, 5 hours, SUDHL10.
Method: Assay 6 Induction of Cytotoxicity Upon Treatment of Cells with Selected Compounds
Therefore, cytotoxicity assays were run in parallel in SUDHL5 and SUDHL10 cells.
The different cell lines were plated in culture medium (RPMI 1640 [GIBCO #22400-089] supplemented with 10% Fetal Bovine Serum) at a density of 3,300 cells in 30 μl/well in a sterile, solid black, flat bottom, polystyrene, TC-treated 384-well microplate (Corning #3571) using Multidrop Combi Reagent Dispenser. As a control, medium without cells was also added to the plate. Cells were incubated in a humidified incubator at 37° C. overnight. On the next day, the cells were treated with compounds (stock solution, 10 mM in DMSO) using the HP D300 Digital Dispenser in a concentration range of 3.3×10e-5 M (33 μM) to 5×10e-9 M (5 nM) in a single-dot curve with at least 16 dilutions and a DMSO concentration of 0.33%. Rim wells were excluded. The cells were incubated for 5 hours in a humidified incubator at 37° C. After this incubation, 30 μl of CellTiter-Glo® Luminescent Cell Viability reagent (Promega, G7573) was added to each well using the Multidrop Combi Reagent Dispenser, followed by 15 minutes incubation on a shaker at room temperature. Finally, luminescence was read at 0.1 ms, with a gain of 3000 using the PHERAstar FS microplate reader (BMG Labtech).
For data set [9], the system named is HMC-1-8. The data set can be described thus: Antiproliferation assay (Assay 7), HMC-1-8. Particulars: CellTiter-Glo, 72 hours, several values per example, read-out: Antiproli HMC-1-8 [M] IC50. The class given is cell-based. How it is done:
as §6, §7, §8, §9, §10

Where a name gives a salt, the structure may show the parent alone. Read-outs that look alike come from different tables or passages of the source.

Sequence of MCL-1 (Q07820 whole entry K194A/K197A/R201A, looked up): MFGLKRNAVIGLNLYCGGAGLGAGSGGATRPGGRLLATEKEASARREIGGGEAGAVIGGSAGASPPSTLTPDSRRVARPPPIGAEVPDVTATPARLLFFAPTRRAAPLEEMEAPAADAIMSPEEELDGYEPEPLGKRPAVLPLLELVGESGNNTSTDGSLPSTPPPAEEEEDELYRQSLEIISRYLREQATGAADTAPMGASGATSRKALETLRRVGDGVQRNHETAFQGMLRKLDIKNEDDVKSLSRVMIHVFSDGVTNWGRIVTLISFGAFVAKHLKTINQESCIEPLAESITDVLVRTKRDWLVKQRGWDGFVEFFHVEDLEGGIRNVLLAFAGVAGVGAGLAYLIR

In the case of `CCc1c2c(nn1C)CN(C)S(=O)(=O)CCCn1c(C(=O)O)c(CCCOc3cccc4cc(F)ccc34)c3ccc(Cl)c-2c31` (racemic) [Example 19, (rac)-13-Chloro-12-ethyl-1-(3-((6-fluoronaphthalen-1-yl)oxy)propyl)-8,11-dimethyl-5,6,9,11-tetrahydro-4H,8H-pyrazolo[3′,4′:4,5][1]thia[2,8]diazacycloundecino[6,7,8-hi]indole-2-carboxylic acid 7,7-dioxide], the IC50 in [1] stood at 1.8 nM; in [4] (Homo sapiens, SU-DHL-5, 72 h), 3.1e-07 M; in data set [5], 8.39e-07 M; in data set [6] (Homo sapiens, AMO1, 72 h), 1.5e-06 M; in [7] (Homo sapiens, SU-DHL-5, 5 h), 4.6e-07 M; in data set [8] (Homo sapiens, SU-DHL10, 5 h) it was 8.5e-07 M. Moreover, the EC50 in data set [2] (Homo sapiens, SU-DHL-5, 3 h) was determined as 420 nM; in [3] (Homo sapiens, SU-DHL10, 3 h), 610 nM.
On to `CCc1c2c(nn1C)C(N1CCOCC1)CCN(C)S(=O)(=O)CCCn1c(C(=O)O)c(CCCOc3cccc4cc(F)ccc34)c3ccc(Cl)c-2c31` (racemic) [Example 69, (rac)-15-chloro-14-ethyl-1-(3-((6-fluoronaphthalen-1-yl)oxy)propyl)-8,13-dimethyl-11-(rac)-morpholino-5,6,9,10,11,13-hexahydro-4H,8H-pyrazolo[3′,4′:6,7][1]thia[2,10]diazacyclotridecino[8,9,10-hi]indole-2-carboxylic acid 7,7-dioxide (Mixture of Stereoisomers)], for which the IC50 amounted to 1.5 nM in [1]; 3.1e-07 M in data set [7] (Homo sapiens, SU-DHL-5, 5 h); 1.3e-06 M in data set [8] (Homo sapiens, SU-DHL10, 5 h). In addition, the half-maximal effective concentration (EC50) in data set [2] (Homo sapiens, SU-DHL-5, 3 h) turned out to be 250 nM; in [3] (Homo sapiens, SU-DHL10, 3 h), 650 nM.
Take `Cc1c2c(nn1C)CN(C)S(=O)(=O)CCCn1c(C(=O)O)c(CCCOc3cccc4ccccc34)c3cccc-2c31` (single isomer, unassigned; enantiomer 1) [Example 11, (+)-2,3,14-Trimethyl-7-[3-(1-naphthyloxy)propyl]-11,12,14,15-tetrahydro-2H,10H-pyrazolo[3′,4′:4,5][1,2,8]thiadiazacycloundecino[6,7,8-hi]indole-8-carboxylic acid 13,13-dioxide-N-ethylethanamine Salt (Enantiomer 1)]: the values for the IC50 in data set [7] and in data set [8] were 1.6e-06 M and 3.7e-06 M, respectively.
Turning to `Cc1c2c(nn1C)CN(C)S(=O)(=O)CCCn1c(C(=O)O)c(CCCOc3cccc4ccccc34)c3cccc-2c31` (single isomer, unassigned; enantiomer 2) [Example 12, (−)-2,3,14-Trimethyl-7-[3-(1-naphthyloxy)propyl]-11,12,14,15-tetrahydro-2H,10H-pyrazolo[3′,4′:4,5][1,2,8]thiadiazacycloundecino[6,7,8-hi]indole-8-carboxylic acid 13,13-dioxide-N-ethylethanamine Salt (Enantiomer 2)], the 50% inhibitory concentration (IC50) in [7] and in data set [8] was 2.7e-05 M in each case.
Regarding `CCc1c2c(nn1C)CN(CC)S(=O)(=O)CCCn1c(C(=O)O)c(CCCOc3cccc4cc(F)ccc34)c3ccc(Cl)c-2c31` (single isomer, unassigned; enantiomer 2) [Example 58, (−)-4-chloro-3,14-diethyl-7-{3-[(6-fluoronaphthalen-1-yl)oxy]propyl}-2-methyl-13,13-dioxo-10,11,12,13,14,15-hexahydro-2H-13lambda^6-pyrazolo[3′,4′:4,5][1,2,8]thiadiazacycloundecino[6,7,8-hi]indole-8-carboxylic acid N-ethylethanamine Salt (Enantiomer 2)], the IC50 is 28 nM in [1]; 1.5e-05 M in [4] (72 hours); over 3.3e-05 M in [6] (72 hours); 1.5e-05 M in data set [9]; 1.2e-05 M in data set [7]. Further, the 50% effective concentration (EC50) in data set [2] (3 hours) worked out at 15000 nM; in data set [3] (3 hours), 32000 nM.
For the compound `CCc1c2c(nn1C)C(N1CCOCC1)CCN(C)S(=O)(=O)CCCn1c(C(=O)O)c(CCCOc3cccc4cc(F)ccc34)c3ccc(Cl)c-2c31` (single isomer, unassigned; enantiomer 2) [Example 71, (−)-4-chloro-3-ethyl-7-{3-[(6-fluoro-1-naphthyl)oxy]propyl}-2,14-dimethyl-17-(morpholin-4-yl)-11,12,14,15,16,17-hexahydro-2H,10H-pyrazolo[3′,4′:6,7][1,2,10]thiadiazacyclotridecino[8,9,10-hi]indole-8-carboxylic acid 13,13-dioxide trifluoroacetate salt (Enantiomer 2)], the IC50 is 0.8 nM in data set [1]; 1.3e-07 M in data set [4] (72 hours); 3.2e-06 M in data set [9]; 1e-07 M in data set [7]; 1.5e-07 M in data set [8]. Besides, the concentration for a half-maximal effect (EC50) in data set [2] (3 hours) stood at 71 nM; in [3] (3 hours), 140 nM.
